Where a name gives a salt, the structure may show the parent alone.
System: MTT (mouse pheochromocytoma)
Test: IC50 of cell viability (ATP content)
Details: (24 or 48 h)
In short: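 MTT mouse pheochromocytoma cells were seeded into white 1536-well plates at 5 µl per well from a 200,000 cells/ml suspension in DMEM with 5% FBS and 1% horse serum, then cultured overnight at 37°C, 5% CO2. A pintool added 23 nl of library compound in DMSO at 8 concentrations (final 0.5 nM to 46 µM) for 24 or 48 hrs, and CellTiter-Glo ATP luminescence was read after 15 minutes. Signals were scaled so that positive-control wells equalled 100% and DMSO wells 0%. IC50 values were derived by fitting a four-parameter logistic curve.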

**Q.** With Nc1nc(O)c(-c2ccccc2)o1 [PEMOLINE] as the molecule, how does the “IC50 of cell viability” value read?
**A.** > 46 µM

**Q.** CN1C(C)(C)CCCC1(C)C.O=C(O)C(O)C(O)C(=O)O [PEMPIDINE TARTRATE] was tested. Which “IC50 of cell viability” value did it give?
**A.** > 46 µM

**Q.** Which “IC50 of cell viability” value does the source give for Nc1nc(O)c2ncn(CCC(CO)CO)c2n1 [PENCICLOVIR SODIUM] here?
**A.** > 46 µM

**Q.** How did the “IC50 of cell viability” value turn out when CCCCCC1Nc2cc(C(F)(F)F)c([S+](N)(=O)[O-])cc2[S+](=O)([O-])N1 (stereo not given) [PENFLUTIZIDE] was run?
**A.** > 46 µM

**Q.** Which “IC50 of cell viability” value does the source give for CC(C)(S)[C@@H](N)C(=O)O [PENICILLAMINE] here?
**A.** > 46 µM

**Q.** With CCCCCC(O)C1C(=O)OC(C)C(O)C=CC=CC=CC=CC=C(C)C(O)C(O)C(O)CC(O)CC(O)CC(O)CC(O)CC1O (stereo not given) [PENTAMYCIN] as the molecule, how does the “IC50 of cell viability” value read?
**A.** > 46 µM

**Q.** How did the “IC50 of cell viability” value turn out when OCCOC[C@H]1O[C@H](OCCO)[C@H](OCCO)[C@@H](OCCO)[C@@H]1OCCO.OC[C@H]1O[C@H](O)[C@H](O)[C@@H](O)[C@@H]1O [PENTASTARCH] was run?
**A.** > 46 µM

**Q.** For CNC1C(O)C(OC2C(N)CC(N)C(OC3OC(CN)=CCC3N)C2O)OCC1(C)O (stereo not given) [PENTISOMICINUM], which “IC50 of cell viability” value is on record?
**A.** > 46 µM

**Q.** With CCCC(C)C1(CC)C(=O)N\C(=N/C1=O)O (stereo not given) [PENTOBARBITAL] as the molecule, how does the “IC50 of cell viability” value read?
**A.** > 46 µM

**Q.** For C1CCc2nnnn2CC1 [PENTYLENETETRAZOLE], which “IC50 of cell viability” value is on record?
**A.** > 46 µM

**Q.** Cc1c(N)nc([C@@H](CC(N)=O)NC[C@H](N)C(N)=O)nc1C(=O)N[C@H](C(=O)N[C@@H](C)[C@@H](O)[C@@H](C)C(=O)N[C@H](C(=O)NCCc1nc(-c2nc(C(=O)NCCCN[C@H](C)c3ccccc3)cs2)cs1)[C@H](C)O)[C@@H](O[C@H]1O[C@@H](CO)[C@H](O)[C@@H](O)[C@H]1O[C@H]1O[C@@H](CO)[C@@H](O)[C@H](OC(N)=O)[C@H]1O)c1cnc[nH]1 [PEPLOMYCIN SULFATE] was tested. Which “IC50 of cell viability” value did it give?
**A.** > 46 µM

**Q.** How did the “IC50 of cell viability” value turn out when CC(C)CC(=O)N[C@H](C(=O)N[C@H](C(=O)N[C@@H](CC(C)C)[C@@H](O)CC(=O)N[C@@H](C)C(=O)N[C@@H](CC(C)C)[C@@H](O)CC(=O)O)C(C)C)C(C)C [PEPSTATINUM] was run?
**A.** > 46 µM

**Q.** Which “IC50 of cell viability” value does the source give for CC(=O)OO [PERACETIC ACID] here?
**A.** > 46 µM

**Q.** For FC(F)(F)C(F)(F)C(F)(F)C(F)(F)C(F)(F)C(F)(F)F [PERFLEXANE], which “IC50 of cell viability” value is on record?
**A.** > 46 µM

**Q.** Which “IC50 of cell viability” value does the source give for FC1(F)C(F)(F)C(F)(F)C2(F)C(F)(F)C(F)(F)C(F)(F)C(F)(F)C2(F)C1(F)F (stereo not given) [PERFLUNAFENUM] here?
**A.** > 46 µM

**Q.** For CCCN1C[C@H](CSC)C[C@@H]2c3cccc4[nH]cc(c34)C[C@H]21 [PERGOLIDE METHANESULFONATE], which “IC50 of cell viability” value is on record?
**A.** > 46 µM

**Q.** How did the “IC50 of cell viability” value turn out when CC1(C)C(\C=C(/Cl)Cl)C1C(=O)OCC2=CC=CC(OC3=CC=CC=C3)=C2 (stereo not given) [PERMETHRIN] was run?
**A.** > 46 µM

**Q.** C=C(Nc1ccc(OCC)cc1)Nc1ccc(OCC)cc1 [PHENACAINE HYDROCHLORIDE] was tested. Which “IC50 of cell viability” value did it give?
**A.** > 46 µM

**Q.** For NC(=O)NC(=O)Cc1ccccc1 [PHENACEMIDE], which “IC50 of cell viability” value is on record?
**A.** > 46 µM

**Q.** With NC(=O)NNc1ccccc1 [PHENICARBAZIDUM] as the molecule, how does the “IC50 of cell viability” value read?
**A.** > 46 µM

**Q.** How did the “IC50 of cell viability” value turn out when O=C(O)C(Cc1cc(I)c(O)c(I)c1)c1ccccc1 (stereo not given) [PHENIODOLUM NATRICUM] was run?
**A.** > 46 µM

**Q.** For O=S(=O)([O-])c1ccc(O)cc1 [PHENOLSULFONIC ACID], which “IC50 of cell viability” value is on record?
**A.** > 46 µM

**Q.** With CC(C)=CC1C(C(=O)OCc2cccc(Oc3ccccc3)c2)C1(C)C (stereo not given) [PHENOTHRIN] as the molecule, how does the “IC50 of cell viability” value read?
**A.** > 46 µM

**Q.** With CC1=CC=C(C=C1)N(C\C2=N\CCN2)C3=CC=CC(=C3)O [PHENTOLAMINE] as the molecule, how does the “IC50 of cell viability” value read?
**A.** > 46 µM

**Q.** With CCCCC1C(=O)N(c2ccccc2)N(c2ccccc2)C1=O [PHENYLBUTAZONE] as the molecule, how does the “IC50 of cell viability” value read?
**A.** > 46 µM

**Q.** How did the “IC50 of cell viability” value turn out when NNc1ccccc1 [PHENYLHYDRAZINE HYDROCHLORIDE] was run?
**A.** > 46 µM

**Q.** CCC(O)c1ccccc1 (stereo not given) [PHENYLPROPANOL] was tested. Which “IC50 of cell viability” value did it give?
**A.** > 46 µM

**Q.** How did the “IC50 of cell viability” value turn out when CN(C)CCOc1ccccc1Cc1ccccc1 [PHENYLTOLOXAMINE CITRATE] was run?
**A.** > 46 µM

**Q.** With O=C1NC(=O)C(c2ccccc2)(c2ccccc2)N1 [PHENYTOIN] as the molecule, how does the “IC50 of cell viability” value read?
**A.** > 46 µM

**Q.** Oc1cc(O)cc(O)c1 [PHLOROGLUCINOL] was tested. Which “IC50 of cell viability” value did it give?
**A.** > 46 µM

**Q.** Which “IC50 of cell viability” value does the source give for CCN(CC)C(=O)/C(Cl)=C(\C)OP(=O)(OC)OC [PHOSPHAMIDON] here?
**A.** > 46 µM

**Q.** For O=C(O)c1ccccc1C(=O)Nc1ccc([S+](=O)([O-])Nc2nccs2)cc1 [PHTHALYLSULFATHIAZOLE], which “IC50 of cell viability” value is on record?
**A.** > 46 µM

**Q.** How did the “IC50 of cell viability” value turn out when CCCCCCCCCCCCCCCC(=O)O[C@@H]1CC(C)=C(\C=C/C(C)=C\C=C/C(C)=C\C=C\C=C(C)\C=C\C=C(C)\C=C\C2=C(C)C[C@@H](OC(=O)CCCCCCCCCCCCCCC)CC2(C)C)C(C)(C)C1 [PHYSALIEN with TLC] was run?
**A.** > 46 µM

**Q.** How did the “IC50 of cell viability” value turn out when CNC(=O)Oc1ccc2c(c1)[C@]1(C)CCN(C)[C@@H]1N2C [PHYSOSTIGMINE] was run?
**A.** > 46 µM

**Q.** For Nc1c(NC/C=C\COc2cc(CN3CCCCC3)ccn2)c(=O)c1=O [PIBUTIDINE HYDROCHLORIDE], which “IC50 of cell viability” value is on record?
**A.** > 46 µM

**Q.** Cc1ccccn1 [PICOLINE, ALPHA] was tested. Which “IC50 of cell viability” value did it give?
**A.** > 46 µM

**Q.** With CC(C)(O)C1C2OC(=O)C1C1(O)CC3OC34C(=O)OC2C14C (stereo not given) [PICROTOXIN] as the molecule, how does the “IC50 of cell viability” value read?
**A.** > 46 µM

**Q.** For Clc1ccccc1-c1nc(-c2ccncc2)no1 [PIFEXOLUM], which “IC50 of cell viability” value is on record?
**A.** > 46 µM

**Q.** Which “IC50 of cell viability” value does the source give for CC[C@@H]1C(=O)OC[C@@H]1Cc1cncn1C [PILOCARPINE] here?
**A.** > 46 µM

**Q.** Cc1cccc(C)c1NC(=O)CC12CCCN1CCC2 [PILSICAINIDE HYDROCHLORIDE] was tested. Which “IC50 of cell viability” value did it give?
**A.** > 46 µM

**Q.** With CC[C@@H]1/C=C(\C)C[C@H](C)C[C@H](OC)[C@H]2O[C@@](O)(C(=O)C(=O)N3CCCC[C@H]3C(=O)O[C@H](/C(C)=C/[C@@H]3CC[C@H](Cl)[C@H](OC)C3)[C@H](C)[C@@H](O)CC1=O)[C@H](C)C[C@@H]2OC [PIMECROLIMUS] as the molecule, how does the “IC50 of cell viability” value read?
**A.** > 46 µM

**Q.** Which “IC50 of cell viability” value does the source give for COc1ccc(-c2nc3ccc(C4=C(C)CC(=O)NN4)cc3[nH]2)cc1 [PIMOBENDAN] here?
**A.** > 46 µM

**Q.** Which “IC50 of cell viability” value does the source give for CC(N/C(=N\C#N)Nc1ccncc1)C(C)(C)C (stereo not given) [PINACIDIL] here?
**A.** > 46 µM

**Q.** For Cc1cccc(C)c1NC(=O)CN1CCCCCC1 [PINCAINIDUM], which “IC50 of cell viability” value is on record?
**A.** > 46 µM

**Q.** Which “IC50 of cell viability” value does the source give for CC(C)NCC(O)COc1cccc2[nH]ccc12 (stereo not given) [PINDOLOL] here?
**A.** > 46 µM

**Q.** For CCc1ccc(CCOc2ccc(CC3SC(=O)NC3=O)cc2)nc1.Cl (stereo not given) [PIOGLITAZONE HYDROCHLORIDE], which “IC50 of cell viability” value is on record?
**A.** > 46 µM

**Q.** NC(=O)C1(N2CCCCC2)CCN(CCCC(=O)c2ccc(F)cc2)CC1 [PIPAMPERONE HYDROCHLORIDE] was tested. Which “IC50 of cell viability” value did it give?
**A.** > 46 µM

**Q.** With CC[N+]1(C)CCCC(OC(=O)C(O)(c2ccccc2)c2ccccc2)C1.[Br-] (stereo not given) [PIPENZOLATE BROMIDE] as the molecule, how does the “IC50 of cell viability” value read?
**A.** > 46 µM

**Q.** For S=C(S)N1CCNCC1 [PIPERAZINE-CARBON DISULFIDE COMPLEX], which “IC50 of cell viability” value is on record?
**A.** > 46 µM

**Q.** CC1CCCCN1CCCOC(=O)c1ccccc1 (stereo not given) [PIPEROCAINE HYDROCHLORIDE] was tested. Which “IC50 of cell viability” value did it give?
**A.** > 46 µM

**Q.** With c1ccc2c(c1)OCC(CN1CCCCC1)O2 (stereo not given) [PIPEROXANUM] as the molecule, how does the “IC50 of cell viability” value read?
**A.** > 46 µM

**Q.** O=C(OCCN1CCCCC1)C(O)(c1ccccc1)c1ccccc1 [PIPETHANATE HYDROCHLORIDE] was tested. Which “IC50 of cell viability” value did it give?
**A.** > 46 µM

**Q.** How did the “IC50 of cell viability” value turn out when O=C(CCBr)N1CCN(C(=O)CCBr)CC1 [PIPOBROMAN] was run?
**A.** > 46 µM

**Q.** Which “IC50 of cell viability” value does the source give for O=C([O-])c1cc(O)c2c3nc4ccccc4oc-3cc(=O)c2n1 [PIRENOXINE] here?
**A.** > 46 µM

**Q.** Which “IC50 of cell viability” value does the source give for CC/1=C(CCN2CCC(CC2)C(=O)C3=CC=C(F)C=C3)/C(=O)N4\C=C/C=C\C4=N1 [PIRENPERONE] here?
**A.** > 46 µM

**Q.** With CN1CCN(CC(=O)N2c3ccccc3C(=O)Nc3cccnc32)CC1 [PIRENZEPINE] as the molecule, how does the “IC50 of cell viability” value read?
**A.** > 46 µM

**Q.** With c1cnc(N2CCN(Cc3ccc4c(c3)OCO4)CC2)nc1 [PIRIBEDIL] as the molecule, how does the “IC50 of cell viability” value read?
**A.** > 46 µM

**Q.** With CN1CC\C(CC1)=C2\C3=C(CCC4=CC=CC=C24)SC=C3 [PIZOTIFEN] as the molecule, how does the “IC50 of cell viability” value read?
**A.** > 46 µM

**Q.** CCC(C)CCCCC(=O)NC(CCN)C(=O)NC(C(=O)NC(CCN)C(=O)NC1CCNC(=O)C(C(C)O)NC(=O)C(CCN)NC(=O)C(CCN)NC(=O)C(CC(C)C)NC(=O)C(Cc2ccccc2)NC(=O)C(CCN)NC1=O)C(C)O.O=[S+]([O-])(O)O (stereo not given) [POLYMYXIN B SULFATE] was tested. Which “IC50 of cell viability” value did it give?
**A.** > 46 µM

**Q.** O=P([O-])([O-])OC[C@@H](O)CO [POTASSIUM GLYCEROPHOSPHATE] was tested. Which “IC50 of cell viability” value did it give?
**A.** > 46 µM

— the supplement of paper PMC3974653
